Data as given in ChEMBL document CHEMBL3526087, “Inhibition of human sterol Δ7-reductase and other postlanosterol enzymes by LK-980, a novel inhibitor of cholesterol synthesis” (Drug Metab Dispos, 2011).

Key:
[1] = target: T1, 3-hydroxy-3-methylglutaryl-coenzyme A reductase (Homo sapiens) (UniProt P04035); assay: Inhibition of HMGCR activity in human hepatocytes assessed as increase in lathosterol level per gram of protein by GC-MS analysis (reference value: 47.7 ug); format: cell-based; conditions: Hepatocyte
T1 sequence (whole entry): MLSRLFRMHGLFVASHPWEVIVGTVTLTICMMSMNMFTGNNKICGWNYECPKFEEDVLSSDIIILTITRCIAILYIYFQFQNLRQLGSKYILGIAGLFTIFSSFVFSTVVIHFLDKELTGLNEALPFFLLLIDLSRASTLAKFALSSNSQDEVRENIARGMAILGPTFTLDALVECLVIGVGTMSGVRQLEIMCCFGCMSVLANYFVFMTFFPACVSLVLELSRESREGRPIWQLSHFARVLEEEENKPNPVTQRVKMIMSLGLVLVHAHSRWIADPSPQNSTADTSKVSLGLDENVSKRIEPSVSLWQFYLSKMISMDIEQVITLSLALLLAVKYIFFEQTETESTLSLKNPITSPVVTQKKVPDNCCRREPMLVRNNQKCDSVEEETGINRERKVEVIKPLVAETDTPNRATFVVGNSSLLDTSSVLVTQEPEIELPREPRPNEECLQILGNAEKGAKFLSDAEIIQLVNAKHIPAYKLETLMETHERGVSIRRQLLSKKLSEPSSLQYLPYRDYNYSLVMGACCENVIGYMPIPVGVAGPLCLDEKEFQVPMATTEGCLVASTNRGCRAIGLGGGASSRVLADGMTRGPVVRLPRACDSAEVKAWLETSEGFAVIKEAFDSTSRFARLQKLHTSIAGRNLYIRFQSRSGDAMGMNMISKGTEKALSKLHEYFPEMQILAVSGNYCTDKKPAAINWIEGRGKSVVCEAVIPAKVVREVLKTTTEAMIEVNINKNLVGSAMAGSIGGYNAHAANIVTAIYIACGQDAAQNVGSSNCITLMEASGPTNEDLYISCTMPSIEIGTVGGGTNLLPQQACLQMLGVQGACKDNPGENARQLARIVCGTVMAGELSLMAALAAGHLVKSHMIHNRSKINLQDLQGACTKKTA

[2] = target: T1, 3-hydroxy-3-methylglutaryl-coenzyme A reductase (Homo sapiens); assay: Inhibition of HMGCR activity in human hepatocytes assessed as increase in desmosterol level per gram of protein by GC-MS analysis (reference value: 5.5 ug); format: cell-based; conditions: Hepatocyte
[3] = target: T1, 3-hydroxy-3-methylglutaryl-coenzyme A reductase (Homo sapiens); assay: Inhibition of HMGCR activity in human hepatocytes assessed as increase in FF-MAS level per gram of protein by GC-MS analysis (reference value: 0.7 ug); format: cell-based; conditions: Hepatocyte
[4] = target: T1, 3-hydroxy-3-methylglutaryl-coenzyme A reductase (Homo sapiens); assay: Inhibition of HMGCR activity in human hepatocytes assessed as increase in 7-dehydrocholesterol level per gram of protein by GC-MS analysis (reference value: 16.3 ug); format: cell-based; conditions: Hepatocyte
[5] = target: T2, Delta(14)-sterol reductase TM7SF2 (Homo sapiens) (UniProt O76062); assay: Inhibition of DHCR14 activity in human hepatocytes assessed as increase in FF-MAS level per gram of protein by GC-MS analysis (reference value: 0.7 ug); format: cell-based; conditions: Hepatocyte
T2 sequence (whole entry): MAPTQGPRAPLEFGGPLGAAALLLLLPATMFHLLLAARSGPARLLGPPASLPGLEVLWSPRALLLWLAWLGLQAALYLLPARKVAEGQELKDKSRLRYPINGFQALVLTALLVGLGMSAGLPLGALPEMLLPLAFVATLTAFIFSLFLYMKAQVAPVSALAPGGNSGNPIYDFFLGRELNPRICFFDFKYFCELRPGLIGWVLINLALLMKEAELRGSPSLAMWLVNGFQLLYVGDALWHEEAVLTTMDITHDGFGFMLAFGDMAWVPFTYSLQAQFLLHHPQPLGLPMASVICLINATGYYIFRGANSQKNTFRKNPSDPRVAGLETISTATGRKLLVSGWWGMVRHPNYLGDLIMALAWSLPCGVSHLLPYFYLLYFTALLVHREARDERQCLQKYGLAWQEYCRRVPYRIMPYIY

[6] = target: T1, 3-hydroxy-3-methylglutaryl-coenzyme A reductase (Homo sapiens); assay: Inhibition of HMGCR activity in human hepatocytes assessed as mevalonate formed per mg of protein at 100 uM by GC-MS analysis (reference value: 69 9 pmol/min); format: cell-based; conditions: Hepatocyte
[7] = tested on: Hepatocyte; assay: Effect on CYP3A4 mRNA expression in human hepatocytes at 10 uM after 12 to 48 hrs by RT-PCR analysis; format: ADME, cell-based
[8] = target: T3, Lathosterol oxidase (Homo sapiens) (UniProt O75845); assay: Inhibition of SC5DL activity in human hepatocytes assessed as increase in lathosterol level per gram of protein by GC-MS analysis (reference value: 47.7 ug); format: cell-based; conditions: Hepatocyte
T3 sequence (whole entry): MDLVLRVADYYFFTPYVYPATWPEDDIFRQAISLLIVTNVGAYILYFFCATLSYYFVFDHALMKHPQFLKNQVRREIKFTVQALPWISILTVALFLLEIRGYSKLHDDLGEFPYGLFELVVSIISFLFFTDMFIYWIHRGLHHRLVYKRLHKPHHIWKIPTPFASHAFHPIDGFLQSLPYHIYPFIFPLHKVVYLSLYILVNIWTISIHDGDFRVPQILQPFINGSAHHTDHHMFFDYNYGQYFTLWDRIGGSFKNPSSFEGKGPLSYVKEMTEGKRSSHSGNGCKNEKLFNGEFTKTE

[9] = target: Cytochrome P450 3A4 (Homo sapiens, UniProt P08684); assay: Effect on CYP3A4 in human hepatocytes assessed as nifedipine oxidation activity using nifedipine as substrate at 10 uM; format: ADME, cell-based, Hepatocyte
[10] = target: T4, 7-dehydrocholesterol reductase (Homo sapiens) (UniProt Q9UBM7); assay: Inhibition of DHCR7 activity in human hepatocytes assessed as increase in 7-dehydrocholesterol level per gram of protein by GC-MS analysis (reference value: 16.3 ug); format: cell-based; conditions: Hepatocyte
T4 sequence (whole entry): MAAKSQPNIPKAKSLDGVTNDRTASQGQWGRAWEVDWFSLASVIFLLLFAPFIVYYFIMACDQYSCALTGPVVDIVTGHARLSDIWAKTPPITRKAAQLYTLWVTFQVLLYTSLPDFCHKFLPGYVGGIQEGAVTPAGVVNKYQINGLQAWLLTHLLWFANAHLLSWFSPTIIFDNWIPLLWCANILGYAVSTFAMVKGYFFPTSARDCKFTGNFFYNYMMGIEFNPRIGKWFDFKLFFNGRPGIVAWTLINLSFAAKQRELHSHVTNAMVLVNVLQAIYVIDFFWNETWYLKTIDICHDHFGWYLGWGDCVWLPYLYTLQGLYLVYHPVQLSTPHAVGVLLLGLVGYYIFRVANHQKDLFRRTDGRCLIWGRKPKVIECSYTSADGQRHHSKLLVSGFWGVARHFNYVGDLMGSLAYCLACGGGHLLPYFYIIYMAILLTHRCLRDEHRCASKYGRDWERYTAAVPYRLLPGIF

[11] = target: T5, Delta(24)-sterol reductase (Homo sapiens) (UniProt Q15392); assay: Inhibition of DHCR24 activity in human hepatocytes assessed as increase in desmosterol level per gram of protein by GC-MS analysis (reference value: 5.5 ug); format: cell-based; conditions: Hepatocyte
T5 sequence (whole entry): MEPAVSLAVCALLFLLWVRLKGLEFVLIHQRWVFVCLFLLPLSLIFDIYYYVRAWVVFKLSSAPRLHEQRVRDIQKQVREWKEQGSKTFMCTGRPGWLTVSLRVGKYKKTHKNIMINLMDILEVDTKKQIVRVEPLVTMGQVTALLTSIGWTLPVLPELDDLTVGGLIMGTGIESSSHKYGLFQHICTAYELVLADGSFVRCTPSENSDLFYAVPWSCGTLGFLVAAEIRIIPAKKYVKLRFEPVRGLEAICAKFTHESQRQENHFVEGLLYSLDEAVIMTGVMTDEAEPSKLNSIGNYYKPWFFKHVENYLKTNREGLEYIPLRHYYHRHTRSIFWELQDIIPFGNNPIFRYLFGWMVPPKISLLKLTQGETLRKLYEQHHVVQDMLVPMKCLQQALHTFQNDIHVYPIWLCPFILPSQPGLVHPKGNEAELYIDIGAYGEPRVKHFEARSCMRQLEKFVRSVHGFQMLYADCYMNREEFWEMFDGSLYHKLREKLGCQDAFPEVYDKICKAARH

Chain of Cytochrome P450 3A4 (P08684 whole entry): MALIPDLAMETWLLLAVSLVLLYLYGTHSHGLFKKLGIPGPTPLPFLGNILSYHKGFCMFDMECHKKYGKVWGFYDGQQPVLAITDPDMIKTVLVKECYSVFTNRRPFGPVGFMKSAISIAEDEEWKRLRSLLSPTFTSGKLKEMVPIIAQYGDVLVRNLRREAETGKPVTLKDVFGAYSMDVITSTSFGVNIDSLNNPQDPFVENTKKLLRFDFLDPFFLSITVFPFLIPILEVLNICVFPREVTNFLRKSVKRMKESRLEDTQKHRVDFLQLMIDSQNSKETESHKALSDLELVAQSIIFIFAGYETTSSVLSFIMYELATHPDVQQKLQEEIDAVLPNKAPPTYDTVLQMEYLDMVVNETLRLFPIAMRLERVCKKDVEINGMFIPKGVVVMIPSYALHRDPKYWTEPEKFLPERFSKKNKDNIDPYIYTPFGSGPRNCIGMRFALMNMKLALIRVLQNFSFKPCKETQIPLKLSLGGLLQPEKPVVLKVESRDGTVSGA

Question: For `CC(C)c1c(C(=O)Nc2ccccc2)c(-c2ccccc2)c(-c2ccc(F)cc2)n1CC[C@@H](O)C[C@@H](O)CC(=O)O`, which Activity [1] is on record?
Answer: 25.8 µg

Question: What about the Activity [2] of the same molecule?
Answer: 2.7 µg

Question: And the Activity [3]?
Answer: 0.3 µg

Question: What about the Activity [4] of the same molecule?
Answer: 15.8 µg

Question: Which Activity [5] does the source give for `OC(CN1CCN(CCc2ccccc2)CC1)c1cccnc1` (stereo unspecified) here?
Answer: 2.9 µg

Question: What about the Activity [6] of the same molecule?
Answer: 76 pmol/min

Question: What about the Activity [7] of the same molecule?
Answer: Non-toxic

Question: And the Activity [8]?
Answer: 119 µg

Question: What about the Activity [9] of the same molecule?
Answer: Non-toxic

Question: What about the Activity [10] of the same molecule?
Answer: 556 µg

Question: What about the Activity [11] of the same molecule?
Answer: 10.1 µg
